From PubChem BioAssay (NCI)
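Assay format: 96-well plates, 48-hour exposure. GI50 = concentration required for 50% inhibition of growth. At the TGI there is no net growth.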

Legend:
Assay in all cases: growth of human tumour cells (NCI), 48 h
[1] = tested on: 786-0 renal
[2] = tested on: A498 renal
[3] = tested on: A549 NSCLC
[4] = tested on: ACHN renal
[5] = tested on: BT-549 breast
[6] = tested on: CAKI-1 renal
[7] = tested on: CCRF-CEM leukemia
[8] = tested on: COLO 205 colon
[9] = tested on: DU-145 prostate
[10] = tested on: EKVX NSCLC
[11] = tested on: HCC-2998 colon
[12] = tested on: HCT-116 colon
[13] = tested on: HCT-15 colon
[14] = tested on: HL-60(TB) leukemia
[15] = tested on: HOP-62 NSCLC
[16] = tested on: HOP-92 NSCLC
[17] = tested on: HS 578T breast
[18] = tested on: HT29 colon
[19] = tested on: IGROV1 ovarian
[20] = tested on: K-562 leukemia
[21] = tested on: KM12 colon
[22] = tested on: LOX IMVI melanoma
[23] = tested on: M14 melanoma
[24] = tested on: MALME-3M melanoma
[25] = tested on: MCF7 breast
[26] = tested on: MDA-MB-231 breast
[27] = tested on: MDA-MB-435
[28] = tested on: MDA-MB-468 breast
[29] = tested on: MOLT-4 leukemia
[30] = tested on: NCI-H226 lung
[31] = tested on: NCI-H23 lung
[32] = tested on: NCI-H460 lung
[33] = tested on: NCI-H522 lung
[34] = tested on: NCI/ADR-RES ovarian
[35] = tested on: OVCAR-3 ovarian
[36] = tested on: OVCAR-4 ovarian
[37] = tested on: OVCAR-5 ovarian
[38] = tested on: OVCAR-8 ovarian
[39] = tested on: PC-3 prostate
[40] = tested on: RPMI-8226 leukemia
[41] = tested on: RXF 393 renal
[42] = tested on: SF-268 CNS
[43] = tested on: SF-295 CNS
[44] = tested on: SF-539 CNS
[45] = tested on: SK-MEL-2 melanoma
[46] = tested on: SK-MEL-28 melanoma
[47] = tested on: SK-MEL-5 melanoma
[48] = tested on: SK-OV-3 ovarian
[49] = tested on: SN12C renal
[50] = tested on: SNB-19 CNS
[51] = tested on: SNB-75 CNS
[52] = tested on: SR leukemia
[53] = tested on: SW-620 colon
[54] = tested on: T-47D breast
[55] = tested on: TK-10 renal
[56] = tested on: U251 CNS
[57] = tested on: UACC-257 melanoma
[58] = tested on: UACC-62 melanoma
[59] = tested on: UO-31 renal

## C=CC[Se]C(=O)c1ccc(C(=O)[Se]CC=C)s1
[1]
  GI50: 314 nM
  TGI: 1160 nM
[2]
  GI50: 2820 nM
  TGI: 66900 nM
[3]
  GI50: 313 nM
  TGI: > 27500 nM
[4]
  GI50: 942 nM
  TGI: 4370 nM
[5]
  GI50: 324 nM
  TGI: 1300 nM
[6]
  GI50: 810 nM
  TGI: 9760 nM
[7]
  GI50: 428 nM
  TGI: > 21800 nM
[8]
  GI50: 1400 nM
  TGI: 4030 nM
[9]
  GI50: 680 nM
  TGI: 6400 nM
[10]
  GI50: 623 nM
  TGI: 1630 nM
[11]
  GI50: 313 nM
  TGI: 1000 nM
[12]
  GI50: 327 nM
  TGI: 1230 nM
[13]
  GI50: 765 nM
  TGI: 2150 nM
[14]
  GI50: 581 nM
  TGI: 2580 nM
[15]
  GI50: 152 nM
  TGI: 1450 nM
[16]
  GI50: 920 nM
  TGI: 7650 nM
[17]
  GI50: 294 nM
  TGI: 1890 nM
[18]
  GI50: 887 nM
  TGI: > 31500 nM
[19]
  GI50: 277 nM
  TGI: 727 nM
[20]
  GI50: 2100 nM
  TGI: > 23000 nM
[21]
  GI50: 284 nM
  TGI: 928 nM
[22]
  GI50: 721 nM
  TGI: 2000 nM
[23]
  GI50: 387 nM
  TGI: 1570 nM
[24]
  GI50: 670 nM
  TGI: 2350 nM
[25]
  GI50: 565 nM
  TGI: 1840 nM
[26]
  GI50: 676 nM
  TGI: 6410 nM
[27]
  GI50: 691 nM
  TGI: 2060 nM
[28]
  GI50: 657 nM
  TGI: 1620 nM
[29]
  GI50: 992 nM
  TGI: 5600 nM
[30]
  GI50: 794 nM
  TGI: 2710 nM
[31]
  GI50: 313 nM
  TGI: 1030 nM
[32]
  GI50: 289 nM
  TGI: 1610 nM
[33]
  GI50: 524 nM
  TGI: 1040 nM
[34]
  GI50: 261 nM
  TGI: 661 nM
[35]
  GI50: 655 nM
  TGI: 1620 nM
[36]
  GI50: 948 nM
  TGI: 2500 nM
[37]
  GI50: 382 nM
  TGI: 1010 nM
[38]
  GI50: 345 nM
  TGI: 1090 nM
[39]
  GI50: 286 nM
  TGI: 1290 nM
[40]
  GI50: 375 nM
  TGI: 2430 nM
[41]
  GI50: 696 nM
  TGI: 1640 nM
[42]
  GI50: 768 nM
  TGI: 4830 nM
[43]
  GI50: 55.2 nM
  TGI: 317 nM
[44]
  GI50: 307 nM
  TGI: 852 nM
[45]
  GI50: 1260 nM
  TGI: 3170 nM
[46]
  GI50: 666 nM
  TGI: 1850 nM
[47]
  GI50: 1490 nM
  TGI: 3350 nM
[48]
  GI50: 224 nM
  TGI: 546 nM
[49]
  GI50: 348 nM
  TGI: 1110 nM
[50]
  GI50: 289 nM
  TGI: 1260 nM
[51]
  GI50: 215 nM
  TGI: 577 nM
[52]
  GI50: 603 nM
  TGI: 2210 nM
[53]
  GI50: 800 nM
  TGI: 2140 nM
[54]
  GI50: 265 nM
  TGI: 962 nM
[55]
  GI50: 1050 nM
  TGI: 7560 nM
[56]
  GI50: 505 nM
  TGI: 1870 nM
[57]
  GI50: 721 nM
  TGI: 2080 nM
[58]
  GI50: 482 nM
  TGI: 1390 nM
[59]
  GI50: 515 nM
  TGI: 1090 nM
